Experimental data taken from patent publication US20220267288A1, “CARDIAC THERAPEUTIC” (priority 2019, published 2022).
Marks after values point to notes of the source that are not given here.

Key:
H9c2 cells = assay: Reduction of intracellular ATP (Mitochondrial ToxGlo) in differentiated H9c2 cells; format: cell-based; conditions: Rattus norvegicus; H9c2 cells, 6 h exposure; read-out: decrease in intracellular ATP levels IC50
Procedure: H9c2 cell line was purchased from American Tissue Type Collection (ATCC) (Manassas, Va.). The cells were cultured in low-glucose DMEM growth media (Cat No: 31600, Thermo Fisher Scientific, Waltham, Mass.) supplemented with 1.5 g/L sodium bicarbonate, 25 mM HEPES, 10% fetal bovine serum (FBS) (GE Healthcare, Singapore), 100 units/mL penicillin, 100 μg/mL streptomycin and 250 ng/mL amphotericin B in 75-cm^2 tissue-culture flasks at 37° C. in a humidified atmosphere of 5% CO2. Cells were fed every 2-3 days and sub-cultured once 70-80% confluency was achieved to prevent the loss of differentiation potential. For differentiation, H9c2 cells were seeded at a density of 100,000 cells/well in 12-well plates. The cells were maintained for 1 day in low-glucose high-serum growth media to allow for cell attachment. Subsequently, cells were differentiated using 1 μM ATRA.
H9c2 cells were seeded in a white chimney plate and differentiated. The media was changed to DMEM with 10 mM galactose, 2 mM glutamine (6 mM final), 5 mM HEPES, 1 mM sodium pyruvate, 100 U/mL penicillin, 100 μg/mL streptomycin, 0.25 μg/mL amphotericin B, 1% FBS, 1× insulin-transferrin-selenium and 1 μM ATRA for 48 h to overcome the Crabtree effect. […] The cytotoxicity and intracellular ATP content were measured concurrently using Mitochondrial ToxGlo™ kit (Promega, Madison, Wis.) using manufacturer's protocol. Mitochondrial ToxGlo™ assay measures the cell viability using fluorogenic peptide bis-alanine-alanine-phenylalanine-R110 (bis-AAF-R110). Bis-AAF-R110 is a selective peptide that measures protease activity in dead cells since it is impermeable to live cells. Here, the fluorescence derived from metabolized bis-AAF-R110 was measured at different concentrations of the test compounds and compared to control. As the concentration of cytotoxic compound increases, the number of dead cells increases, leading to a higher fluorescence signal. ATP is measured by adding the ATP Detection Reagent, resulting in cell lysis and generation of a luminescent signal proportional to the amount of ATP present. […]

CYP3A5 = molecular target: T1, CYP3A5 (Homo sapiens, UniProt P20815); assay: Metabolic stability (substrate depletion) with CYP3A5; format: in vitro ADME; conditions: for elimination rate constant k by CYP3A5 / half-life at 1 μM: 1 μM substrate, CYP3A5 10 pmol/mL; for CLint (CYP3A5): PBPK parameter, in vitro data obtained; for half-life at 1 μM: human, CYP3A5 enzyme, pH 7.4, read-out: T1/2 by CYP3A5; for Intrinsic clearance, CLint CYP3A5: substrate depletion
T1 construct: purchased BD Gentest (Woburn, Mass.)
Procedure: The metabolic stability experiments were performed to derive intrinsic clearance (CLint) values via the substrate depletion method. […] NADPH A was subsequently added to initiate the reaction. […] The reaction mixtures were incubated at 37° C. with gentle agitation. At the respective time points (0-60 min), 80 μL of the reaction mixture was quenched using an equal volume of ice-cold ACN with 1 μM tamoxifen as internal standard (IS). The samples were then centrifuged at 3220 g at 4° C. for 30 min before transferring the supernatant to a 96-well plate for liquid chromatography-tandem mass spectrometry (LC-MS/MS) analysis.
The mean of triplicate peak area ratios for each compound was normalized to that of the same compound at the 0 min time point to obtain the percentage of substrate remaining at each time point. This was plotted against incubation time for each compound and the data was then fitted to a one-phase decay model using GraphPad Prism software (version 8.02; GraphPad Inc., San Diego, Calif.) to obtain an estimation for the elimination rate constant (k). CLint was then calculated based on equation 3:
In equation 3, k=elimination rate constant (min^−1); V=volume of incubation mixture (mL); P=amount of protein in mixture (mg).

CYP2J2 = molecular target: T2, CYP2J2 (Homo sapiens, UniProt P51589); assay: In-vitro metabolic half-life with recombinant CYP2J2; format: in vitro ADME; conditions: recombinant CYP2J2, NADPH, 1 μM drug, read-out: Metabolic half-life (T1/2)
T2 sequence (P51589 1-502): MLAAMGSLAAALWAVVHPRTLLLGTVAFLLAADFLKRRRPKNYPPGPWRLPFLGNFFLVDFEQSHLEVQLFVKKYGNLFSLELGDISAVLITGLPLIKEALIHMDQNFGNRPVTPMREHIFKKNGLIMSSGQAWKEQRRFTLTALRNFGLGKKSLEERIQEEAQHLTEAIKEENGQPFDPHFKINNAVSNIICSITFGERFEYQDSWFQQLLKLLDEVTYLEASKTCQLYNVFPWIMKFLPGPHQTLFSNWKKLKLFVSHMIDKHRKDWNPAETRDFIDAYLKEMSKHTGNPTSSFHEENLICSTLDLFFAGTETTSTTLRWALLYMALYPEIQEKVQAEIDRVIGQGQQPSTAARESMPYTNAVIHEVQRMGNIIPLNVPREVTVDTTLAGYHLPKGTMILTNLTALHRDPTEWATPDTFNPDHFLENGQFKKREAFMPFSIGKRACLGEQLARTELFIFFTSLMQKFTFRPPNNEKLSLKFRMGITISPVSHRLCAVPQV

T1 sequence (P20815 whole entry): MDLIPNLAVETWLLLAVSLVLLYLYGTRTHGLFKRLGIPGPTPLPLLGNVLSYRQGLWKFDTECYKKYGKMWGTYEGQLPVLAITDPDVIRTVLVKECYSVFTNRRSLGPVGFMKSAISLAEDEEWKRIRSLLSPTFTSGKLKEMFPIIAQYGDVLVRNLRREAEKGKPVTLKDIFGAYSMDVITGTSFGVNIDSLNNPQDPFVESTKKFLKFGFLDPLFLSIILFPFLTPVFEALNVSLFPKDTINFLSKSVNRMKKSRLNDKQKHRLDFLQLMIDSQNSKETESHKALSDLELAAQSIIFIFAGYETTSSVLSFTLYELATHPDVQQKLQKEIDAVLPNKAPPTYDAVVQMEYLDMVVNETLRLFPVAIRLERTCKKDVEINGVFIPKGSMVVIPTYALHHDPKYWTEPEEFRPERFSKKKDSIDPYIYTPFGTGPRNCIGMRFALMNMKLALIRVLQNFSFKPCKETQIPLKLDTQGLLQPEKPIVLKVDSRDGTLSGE

| Structure (SMILES) | IC50 (H9c2 cells) [µM] | elimination rate constant k by CYP3A5 (CYP3A5) [min⁻¹] | CLint (CYP3A5) (CYP3A5) | half-life at 1 μM (CYP3A5) [min] | Intrinsic clearance, CLint CYP3A5 (CYP3A5) [µL/min/pmol] | Intrinsic clearance, CLint CYP3A5 (CYP3A5; listed as dronedarone) [µL/min/pmol] | half-life at 1 μM (CYP2J2) [min] | Intrinsic clearance, CLint CYP3A5 (CYP3A5; listed as poyendarone) [µL/min/pmol] |
| --- | --- | --- | --- | --- | --- | --- | --- | --- |
| CCCCc1oc2ccc(NS(C)(=O)=O)cc2c1C(=O)c1ccc(OCCCN(CCCC)CCCC)cc1.Cl [Dronedarone] | 3.1 | 0.03989 | 14.1812* μL/min/mg microsomal protein | 17.4 | 3.99 | 3.989 | 4.95 | – |
| Cl.[2H]c1c(NS(C)(=O)=O)c([2H])c2c(C(=O)c3ccc(OCCCN(CCCC)CCCC)cc3)c(CCCC)oc2c1[2H] [Poyendarone, Methanesulfonamide, N-(2-butyl-3-(4-(3-(dibutylamino)propoxy)benzoyl)-1-benzo(4,6,7-d3)-furan-5-yl)hydrochloride] | 41.5 | 0.02757 | 14.2384* μL/min/mg microsomal protein | 25.1 | 2.76 | – | 5.32 | 2.757 |
